Test results reported in patent publication US9615577B2, “Herbicidally active cyclic dione compounds, or derivatives therefor, substituted by a phenyl which has an alkynyl-containing substituent” (Syngenta Limited, priority 2012, dated 2017).

Key:
Format in all cases: in vivo
[1] = test system: Alopecurus myosuroides (ALOMY); experiment: Biological Example 2 comparative herbicidal data, post-emergence glasshouse screen; details: 312 h, read-out: Post-emergence herbicidal activities (percentage phytotoxicity) ALOMY; for pest or weed control at 30 g/ha: 30 g/ha application rate; for pest or weed control at 8 g/ha: 8 g/ha application rate
Method: (§1) Seeds of a variety of test species were sown in standard soil in pots. After cultivation for one day (pre-emergence) or after 8 days cultivation (post-emergence) under controlled conditions in a glasshouse (at 24/16° C., day/night; 14 hours light; 65% humidity), the plants were sprayed with an aqueous spray solution derived from the formulation of the technical active ingredient in acetone/I water (50:50) solution containing 0.5% Tween 20 (polyoxyethelyene sorbitan monolaurate, CAS RN 9005-64-5). The test plants were then grown in a glasshouse under controlled conditions in a glasshouse (at 24/16° C., day/night; 14 hours light; 65% humidity) and watered twice daily. After 13 days for pre and post-emergence, the test was evaluated visually for percentage phytotoxicity to the plant (where 100=total damage to plant; 0=no damage to plant).
(§2) Comparative herbicidal data is given below for certain exemplified compounds with 4-(prop-1-ynyl)-2,6-dimethylphenyl or 4-(chloroethynyl)-2,6-dimethylphenyl headgroups, compared to the corresponding compounds with either 4-ethynyl-2,6-dimethylphenyl or 2,4,6-trimethylphenyl headgroups, as follows. Comparative herbicidal data is also given below for certain exemplified compounds with 4-(prop-1-ynyl)-2-chloro-6-methoxyphenyl headgroups, compared to the corresponding compounds with 4-ethynyl-2-chloro-6-methoxyphenyl or 4-(but-1-ynyl)-2-chloro-6-methoxyphenyl or 4-methyl-2-chloro-6-methoxyphenyl or 2-chloro-6-methoxyphenyl headgroups, as follows.
(§3) Except where specified otherwise, the glasshouse screen for herbicidal activity is substantially the same as that presented in Biological Example 1A (Test 1A) hereinabove. The weed abbreviations are as defined in Biological Example 1A.

Setaria faberi (SETFA) [2] = experiment: as above; details: 312 h, read-out: Post-emergence herbicidal activities (percentage phytotoxicity) SETFA; for pest or weed control at 30 g/ha: 30 g/ha application rate; for pest or weed control at 8 g/ha: 8 g/ha application rate
Method: as §1, §2, §3

[3] = test system: Echinochloa crus-galli (ECHCG); experiment: as above; details: 312 h, read-out: Post-emergence herbicidal activities (percentage phytotoxicity) ECHCG; for pest or weed control at 30 g/ha: 30 g/ha application rate; for pest or weed control at 8 g/ha: 8 g/ha application rate
Method: as §1, §2, §3

[4] = test system: Abutilon theophasti Medik. (ABUTH); experiment: as above; details: read-out: Post-emergence herbicidal activities (percentage phytotoxicity) ABUTH; for pest or weed control at 30 g/ha: 30 g/ha application rate; for pest or weed control at 8 g/ha: 8 g/ha application rate
[5] = test system: Amaranthus retroflexus (AMARE); experiment: Test 1A glasshouse assay for herbicidal activity, pre-emergence; details: 312 h, 250 g/ha, evaluated after 13 days, read-out: percentage phytotoxicity AMARE
Method: as §1
(§4) Alopecurus myosuroides (ALOMY), Setaria faberi (SETFA), Echinochloa crus-galli (ECHCG), Solanum nigrum (SOLNI), Amaranthus retroflexus (AMARE), Ipomoea hederacea (IPOHE), and Abutilon theophasti Medik. (ABUTH, common English name “velvetleaf”). Of these, Alopecurus myosuroides (ALOMY), Setaria faberi (SETFA), and Echinochloa crus-galli (ECHCG) are grassy monocotyledonous weeds.

[6] = test system: Alopecurus myosuroides (ALOMY); experiment: as above; details: 312 h, 250 g/ha, evaluated after 13 days, read-out: percentage phytotoxicity ALOMY
Method: as §1, §4

[7] = test system: Abutilon theophasti Medik. (ABUTH); experiment: as above; details: 312 h, 250 g/ha, evaluated after 13 days, read-out: percentage phytotoxicity ABUTH
Method: as §1, §4

Setaria faberi (SETFA) [8] = experiment: as above; details: 312 h, 250 g/ha, evaluated after 13 days, read-out: percentage phytotoxicity SETFA
Method: as §1, §4

[9] = test system: Echinochloa crus-galli (ECHCG); experiment: as above; details: 312 h, 250 g/ha, evaluated after 13 days, read-out: percentage phytotoxicity ECHCG
Method: as §1, §4

[10] = test system: Amaranthus retroflexus (AMARE); experiment: Test 1A glasshouse assay for herbicidal activity, post-emergence; details: 312 h, 250 g/ha, evaluated after 13 days, read-out: percentage phytotoxicity AMARE
Method: as §1, §4

[11] = test system: Alopecurus myosuroides (ALOMY); experiment: as above; details: 312 h, 250 g/ha, evaluated after 13 days, read-out: percentage phytotoxicity ALOMY
Method: as §1, §4

[12] = test system: Abutilon theophasti Medik. (ABUTH); experiment: as above; details: 312 h, 250 g/ha, evaluated after 13 days, read-out: percentage phytotoxicity ABUTH
Method: as §1, §4

Setaria faberi (SETFA) [13] = experiment: as above; details: 312 h, 250 g/ha, evaluated after 13 days, read-out: percentage phytotoxicity SETFA
Method: as §1, §4

[14] = test system: Echinochloa crus-galli (ECHCG); experiment: as above; details: 312 h, 250 g/ha, evaluated after 13 days, read-out: percentage phytotoxicity ECHCG
Method: as §1, §4

[15] = test system: Amarantus retroflexus (AMARE); experiment: Biological Example 2 comparative herbicidal data, post-emergence glasshouse screen; details: Amaranthus retroflexus, read-out: Post-emergence herbicidal activities (percentage phytotoxicity) AMARE; for pest or weed control at 30 g/ha: 30 g/ha application rate; for pest or weed control at 8 g/ha: 8 g/ha application rate

## CCC#Cc1cc(Cl)c(C2C(=O)C3CCC(C3)C2=O)c(OC)c1 (stereo not drawn) [Compound B-4]
[1]
  pest or weed control at 30 g/ha: 60%
Setaria faberi (SETFA) [2]
  pest or weed control at 30 g/ha: 70%
[3]
  pest or weed control at 30 g/ha: 80%
[4]
  pest or weed control at 30 g/ha: 0%
[5]
  pest or weed control at 250 g/ha: 40%
[6]
  pest or weed control at 250 g/ha: 100%
[7]
  pest or weed control at 250 g/ha: 10%
Setaria faberi (SETFA) [8]
  pest or weed control at 250 g/ha: 70%
[9]
  pest or weed control at 250 g/ha: 100%
[10]
  pest or weed control at 250 g/ha: 30%
[11]
  pest or weed control at 250 g/ha: 100%
[12]
  pest or weed control at 250 g/ha: 70%
Setaria faberi (SETFA) [13]
  pest or weed control at 250 g/ha: 90%
[14]
  pest or weed control at 250 g/ha: 100%
[15]
  pest or weed control at 30 g/ha: 20%

## COc1cc(C)cc(Cl)c1C1C(=O)C2CCC(C2)C1=O (stereo not drawn) [Compound X-5, reference compound]
[1]
  pest or weed control at 8 g/ha: 0%
  pest or weed control at 30 g/ha: 30%
Setaria faberi (SETFA) [2]
  pest or weed control at 8 g/ha: 20%
  pest or weed control at 30 g/ha: 60%
[3]
  pest or weed control at 8 g/ha: 0%
  pest or weed control at 30 g/ha: 80%
[4]
  pest or weed control at 8 g/ha: 0%
  pest or weed control at 30 g/ha: 10%
[15]
  pest or weed control at 8 g/ha: 30%
  pest or weed control at 30 g/ha: 30%

## COc1cccc(Cl)c1C1C(=O)CC2(CCOCC2)CC1=O [Compound X-6, reference compound]
[1]
  pest or weed control at 30 g/ha: 20%
Setaria faberi (SETFA) [2]
  pest or weed control at 30 g/ha: 10%
[3]
  pest or weed control at 30 g/ha: 10%
[4]
  pest or weed control at 30 g/ha: 0%
[15]
  pest or weed control at 30 g/ha: 20%

## CSCCC1CC(=O)C(c2c(C)cc(C)cc2C)C(=O)C1 (stereo not drawn) [Compound X-7, reference compound]
[1]
  pest or weed control at 8 g/ha: 0%
  pest or weed control at 30 g/ha: 30%
Setaria faberi (SETFA) [2]
  pest or weed control at 8 g/ha: 0%
  pest or weed control at 30 g/ha: 20%
[3]
  pest or weed control at 8 g/ha: 0%
  pest or weed control at 30 g/ha: 10%
[4]
  pest or weed control at 8 g/ha: 0%
  pest or weed control at 30 g/ha: 0%
[15]
  pest or weed control at 8 g/ha: 0%
  pest or weed control at 30 g/ha: 0%

## CSC(C)CC1CC(=O)C(c2c(C)cc(C)cc2C)C(=O)C1 (stereo not drawn) [Compound X-8, reference compound]
[1]
  pest or weed control at 30 g/ha: 70%
Setaria faberi (SETFA) [2]
  pest or weed control at 30 g/ha: 80%
[3]
  pest or weed control at 30 g/ha: 70%
[4]
  pest or weed control at 30 g/ha: 0%
[15]
  pest or weed control at 30 g/ha: 0%
